Laboratory results reported in publication PMC3115046, “Analyzing Airway Inflammation with Chemical Biology: Dissection of Acidic Mammalian Chitinase Function with a Selective Drug-like Inhibitor” (Chemistry & Biology, 2011).
Several values for one entry are separate records, joined by “and”; a condition that tells them apart may be missing. Identical values can stand only once. Like-named read-outs stand apart in the source and are kept apart here.

Key:
human AMCase (hAMCase) = molecular target: T1, human AMCase (hAMCase) (Homo sapiens, UniProt Q9BZP6); experiment: Chitinase activity assay with fluorescent 4-MU substrate, hAMCase; type: biochemical
T1 construct: A fragment corresponding to hAMCase 22-398 (bp 64–1194) was ligated into the pPIC9 vector; made in house; host or cells: Pichia pastoris GS115
Description: A fragment corresponding to hAMCase 22-398 (bp 64–1194) was ligated into the pPIC9 vector (Invitrogen) using the Xho I and Not I restriction sites. The enzyme was subsequently overexpressed as a secreted protein from the Pichia pastoris GS115 strain and purified using a combination of affinity chromatography and size-exclusion chromatography. Pure hAMCase was spin concentrated to 37 mg/ml in 25 mM HEPES (pH 6.8), 250 mM NaCl. The protein was crystallized at 30°C from 75% saturated NaCl, 0.1 M HEPES (pH 7.4) using the hanging drop method. Crystals grew to an approximate size of 200 × 100 × 50 μm. Crystals were cryoprotected in 50% saturated NaCl, 20% glycerol in 0.1 M HEPES (pH 7.4) and subsequently flash frozen in liquid nitrogen. […] Data for hAMCase were collected at ID14-EH1 at the European Synchrotron Radiation Facilities (ESRF) using a cryostream of cold nitrogen (110 K). […]
Chitinase activity of hAMCase, lung homogenates, or AMCase COS-7 cell supernatants (serum-free) were determined using 4-methylumbelliferyl-β-D-N,N′,N″-triacetylchitotrioside and 4-methylumbelliferyl-β-D-N,N′,N″-triacetylchitobioside, as described. […] Liberated 4-methlyumberlliferone was quantified using a microplate fluorometer (excitation 360 nm/emission 440 nm). Ki and IC50 values were determined in the presence of different concentrations of inhibitor. […]

[1] = molecular target: human chitotriosidase (hCHIT1) (Homo sapiens, UniProt Q13231); experiment: Chitinase activity assay with fluorescent 4-MU substrate, hCHIT1; type: biochemical; settings: read-out: IC50 against hCHIT1
recombinant mAMCase = molecular target: T2, recombinant mAMCase (Mus musculus, UniProt Q91XA9); experiment: Recombinant mAMCase (COS-7 cell-free supernatant) chitinase activity assay; type: biochemical; settings: 10 min at 37°C, read-out: IC50 against recombinant mAMCase
T2 construct: The full-length-coding region of mAMCase was amplified using a lung cDNA template; V5/His; made in house; cell-free, serum-free supernatant used as enzyme source
Description: Chitinase activity was determined using a fluorescent 4-methylumbelliferyl (4-MU) substrate. […] Chitinase activity is measured relative to the amount of substrate hydrolysed/hr/mL sample.
The full-length-coding region of mAMCase was amplified using a lung cDNA template. The cDNA fragment was directionally cloned into pcDNA3.1 (Invitrogen), to generate a V5/His tagged plasmid. TOP10 competent cells were transformed with the AMCase plasmid and sequence confirmed. Mammalian COS-7 cells were transfected with AMCase-pcDNA3.1 plasmid using Lipofectamine 2000 (Invitrogen). COS-7 cell supernatants were screened for AMCase protein by western blot and chitinase activity. A stable AMCase-expressing cell line was generated using G418 selection medium (RPMI).
Chitinase activity of hAMCase, lung homogenates, or AMCase COS-7 cell supernatants (serum-free) were determined using 4-methylumbelliferyl-β-D-N,N′,N″-triacetylchitotrioside and 4-methylumbelliferyl-β-D-N,N′,N″-triacetylchitobioside, as described. Samples were incubated with substrate (0.022 mM in 100 mM citric acid, 200 mM sodium phosphate buffer [pH 5.2]) in a final volume of 50 μL. […] Liberated 4-methlyumberlliferone was quantified using a microplate fluorometer (excitation 360 nm/emission 440 nm). Ki and IC50 values were determined in the presence of different concentrations of inhibitor. Experiments were performed in duplicate or triplicate.

lung chitinase activity = experiment: Chitinase activity in lung homogenates, OVA allergic inflammation model; type: in vivo, BALB/c mice
Description: Samples were incubated with substrate (0.022 mM in 100 mM citric acid, 200 mM sodium phosphate buffer [pH 5.2]) in a final volume of 50 μL. After a 10 min incubation at 37°C, the reaction was stopped with the addition of 500 μl sodium carbonate buffer (0.5 M sodium carbonate and 0.5 M sodium bicarbonate [pH 10.6]). Liberated 4-[…] was quantified using a microplate fluorometer (excitation 360 nm/emission 440 nm). Ki and IC50 values were determined in the presence of different concentrations of inhibitor. Experiments were performed in duplicate or triplicate. All experiments used female BALB/c mice, 6- to 8-weeks-old. Mice were kept in individually ventilated cages and all experiments were conducted under UK Home Office guidelines. Mice were sensitized (day 0) and boosted (day 14) i.p. with 20 μg OVA (Grade V, Sigma) adsorbed to 9% potassium alum. Mice were either challenged on day 28 and 30 with 50 μg OVA or PBS by the intratracheal route or were challenged with 1% OVA or PBS by aerosol for 30 min on day 28 to day 30. […] Necropsies were performed 24 hr after the final airway challenge. Protein from dissected lung was homogenized (TissueLyser, QIAGEN) in lysis buffer containing protease cocktail inhibitor (Sigma). Samples were incubated for 20 min on ice, prior to centrifugation 10,000 × g to removed cell debris. Protein amounts were quantified with Coomassie (Bradford) Reagent. […]

T1 sequence (Q9BZP6 22-398): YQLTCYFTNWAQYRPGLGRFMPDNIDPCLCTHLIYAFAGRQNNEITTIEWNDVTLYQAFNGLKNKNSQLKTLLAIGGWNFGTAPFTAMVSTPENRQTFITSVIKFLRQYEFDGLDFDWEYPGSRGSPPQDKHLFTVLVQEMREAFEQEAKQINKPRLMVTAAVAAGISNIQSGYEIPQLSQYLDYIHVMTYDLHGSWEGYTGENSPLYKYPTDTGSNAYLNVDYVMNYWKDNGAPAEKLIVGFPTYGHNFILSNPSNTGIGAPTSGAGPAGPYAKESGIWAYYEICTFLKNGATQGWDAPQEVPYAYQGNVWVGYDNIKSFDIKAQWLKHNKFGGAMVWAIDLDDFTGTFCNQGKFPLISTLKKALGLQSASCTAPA
Sequence of human chitotriosidase (hCHIT1) (Q13231 22-466): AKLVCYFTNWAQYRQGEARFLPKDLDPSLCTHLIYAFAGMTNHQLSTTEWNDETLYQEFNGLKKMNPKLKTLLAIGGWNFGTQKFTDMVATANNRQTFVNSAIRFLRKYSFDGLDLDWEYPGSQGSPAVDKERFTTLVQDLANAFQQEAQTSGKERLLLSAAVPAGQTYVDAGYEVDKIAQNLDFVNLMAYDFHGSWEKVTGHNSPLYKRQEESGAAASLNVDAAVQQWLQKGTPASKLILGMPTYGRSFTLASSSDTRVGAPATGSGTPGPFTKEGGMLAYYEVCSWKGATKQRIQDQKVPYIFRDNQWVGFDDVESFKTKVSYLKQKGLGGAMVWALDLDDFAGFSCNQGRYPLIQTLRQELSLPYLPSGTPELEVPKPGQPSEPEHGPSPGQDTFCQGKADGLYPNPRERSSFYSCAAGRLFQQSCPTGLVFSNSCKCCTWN
T2 sequence (Q91XA9 22-473): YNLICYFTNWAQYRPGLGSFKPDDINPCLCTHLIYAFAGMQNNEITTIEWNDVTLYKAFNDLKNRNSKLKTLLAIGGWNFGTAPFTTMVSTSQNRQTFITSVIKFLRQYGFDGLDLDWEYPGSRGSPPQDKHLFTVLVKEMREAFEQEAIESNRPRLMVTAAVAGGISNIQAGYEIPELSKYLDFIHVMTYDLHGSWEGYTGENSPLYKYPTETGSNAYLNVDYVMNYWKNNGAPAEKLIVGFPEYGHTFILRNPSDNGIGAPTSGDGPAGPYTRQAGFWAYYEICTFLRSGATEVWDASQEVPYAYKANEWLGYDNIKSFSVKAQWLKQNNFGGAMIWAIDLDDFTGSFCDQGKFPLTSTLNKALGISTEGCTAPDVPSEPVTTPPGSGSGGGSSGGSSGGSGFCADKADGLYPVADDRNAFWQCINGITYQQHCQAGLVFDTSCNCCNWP

Question: Cn1cnc2c1c(=O)n(CCCn1c(=O)c3[nH]cnc3n(C)c1=O)c(=O)n2C [bisdionin F] was tested. Which IC50 (human AMCase (hAMCase); 4-MU substrate, pH 5.2, 10 min 37°C, read-out: IC50 against hAMCase) did it give?
Answer: 920 ± 40 nM

Question: What about the “selectivity for AMCase over CHIT1” value (human AMCase (hAMCase); hAMCase vs hCHIT1) of the same compound?
Answer: 20 fold

Question: And the IC50 ([1]; listed as Bisdionin F)?
Answer: 17100 ± 1000 nM

Question: And the IC50 [1]?
Answer: 17000 nM

Question: And the IC50 (recombinant mAMCase)?
Answer: 2210 nM and 2200 nM

Question: What about the “chitinase activity in the lungs” value (lung chitinase activity; 5 mg/kg i.p., control PBS and OVA-challenged mice, about 24 hr after last challenge) of the same compound?
Answer: significantly reduced

Question: What about the “lowest dose at which any chitinase inhibition was observed” value (lung chitinase activity; i.p., allergic mice) of the same compound?
Answer: 1 mg/kg
